Patent US20250049970A1, “DLL3 TARGETING PEPTIDES AND CONSTRUCTS THEREOF” (MARIANA ONCOLOGY INC., priority 2023, published 2025)
Read-outs that look alike come from different tables or passages of the source. *1 amine or outer side, *2 acyl side, *3 side chain or, on linkers, in order; H or OH if unused. Where a SMILES comes first, the peptide text is derived from it. Bridges are numbered along the chain shown (N, C = ends). Roman numbers before positions name the chains, in order. Side-chain parts run from the residue outwards. [ ]: non-standard residue; d: D form. The star is where a group is joined. X11 = O=C(O)CN1CCN(CC(=O)O)CCN(CC(=O)NCCCOCCOCCOCCCN*)CCN(CC(=O)O)CC1; Ala(piperidin-4-yl) = O=C([C@H](CC1CCN([*:3])CC1)N[*:1])[*:2]; DOTA = O=C(O)CN1CCN(CC(=O)O)CCN(CC(=O)*)CCN(CC(=O)O)CC1; X5 = O=C(Cc1ccc(Br)cc1)NCCOCCOCCOCCOCCOCCOCCOCCOCC(=O)*; X2 = O=C(Cc1ccc(I)cc1)NCCOCCOCCOCCOCCOCCOCCOCCOCC(=O)*; Trp(7-OMe) = COc1cccc2c(C[C@H](N)C(=O)O)c[nH]c12; Trp(7-Me) = Cc1cccc2c(C[C@H](N)C(=O)O)c[nH]c12; 2Nal = N[C@@H](Cc1ccc2ccccc2c1)C(=O)O; NMetBuAla = CN[C@@H](CC(C)(C)C)C(=O)O; tBuAla = CC(C)(C)C[C@H](N)C(=O)O; Chg = N[C@H](C(=O)O)C1CCCCC1; NMeNle = CCCC[C@H](NC)C(=O)O; Suc = O=C(CCC(=O)[*:2])[*:1]; CH2 = C([*:1])[*:2]

Molecular target: T1, DLL3 (Homo sapiens, UniProt Q9NYJ7)
T1 sequence (Q9NYJ7 27-618): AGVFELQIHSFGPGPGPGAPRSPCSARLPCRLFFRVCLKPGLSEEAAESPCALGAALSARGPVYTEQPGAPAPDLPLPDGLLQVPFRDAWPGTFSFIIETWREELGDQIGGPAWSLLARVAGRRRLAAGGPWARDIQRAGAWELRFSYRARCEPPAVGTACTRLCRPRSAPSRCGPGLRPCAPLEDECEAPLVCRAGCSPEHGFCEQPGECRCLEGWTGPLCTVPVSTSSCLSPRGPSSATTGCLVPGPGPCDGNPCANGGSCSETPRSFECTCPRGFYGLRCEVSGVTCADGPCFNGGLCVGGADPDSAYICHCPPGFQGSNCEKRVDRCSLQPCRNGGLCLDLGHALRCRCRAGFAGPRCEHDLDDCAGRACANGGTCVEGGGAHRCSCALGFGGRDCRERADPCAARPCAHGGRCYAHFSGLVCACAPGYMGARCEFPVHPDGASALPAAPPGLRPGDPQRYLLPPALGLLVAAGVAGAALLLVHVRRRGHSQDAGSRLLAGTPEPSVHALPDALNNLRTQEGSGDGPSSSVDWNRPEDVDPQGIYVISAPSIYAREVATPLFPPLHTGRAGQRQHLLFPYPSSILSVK
Experiment: SPR KD, biotinylated human DLL3 on streptavidin chip (Table 8)
Design: biotin (biotinylated)
Settings: biotinylated human DLL3 on streptavidin sensor chip, 25° C., 1:1 binding model
Excerpt: Biotinylated target ligand human DLL3 was immobilized on a streptavidin sensor chip. A reference surface was set up for nonspecific binding and refractive index changes. […] Sensorgram curves were fitted with 1:1 binding model, and affinity and kinetic parameters were obtained using Biacore Insight evaluation 4.0. software.

CC(=O)N[C@@H](Cc1c[nH]c2ccccc12)C(=O)N[C@H](C(=O)N[C@H](C(=O)N[C@H]1CSSC[C@@H](C(=O)N[C@@H](Cc2c[nH]c3ccccc23)C(=O)N2CCC[C@H]2C(N)=O)NC(=O)[C@H](CC(=O)O)NC(=O)[C@H](CCCCNC(=O)CNC(=O)CNC(=O)CCC(=O)NCCCOCCOCCOCCCNC(=O)CN2CCN(CC(=O)O)CCN(CC(=O)O)CCN(CC(=O)O)CC2)NC(=O)[C@H](Cc2ccc3ccccc3c2)NC(=O)[C@H](CC(N)=O)NC(=O)[C@H](CC2CCNCC2)NC1=O)C1CCCCC1)[C@@H](C)O [compound 406, Ac-W-T-(Chg)-C(3)-[3-(4-piperidinyl)-Ala]-N-(2Nal)-Lys(G-G-TTDS-DOTA)-D-C(3)-W-P-CONH2] (Ac-WT[Chg]C[Ala(piperidin-4-yl)]N[2Nal]K([Gly-Gly-Suc-X11])DCWP-NH2; disulfide 4-10)
Kd (read-out: SPR KD): < 1 nM

CC(=O)N[C@@H](Cc1c[nH]c2ccccc12)C(=O)N[C@H](C(=O)N[C@H](C(=O)N[C@H]1CSSC[C@@H](C(=O)N[C@@H](Cc2c[nH]c3ccccc23)C(=O)N2CCC[C@H]2C(N)=O)NC(=O)[C@H](CC(=O)O)NC(=O)[C@H](CCCCNC(=O)CNC(=O)[C@H](CO)NC(=O)CNC(=O)[C@H](CO)NC(=O)CNC(=O)[C@H](CO)NC(=O)CN2CCN(CC(=O)O)CCN(CC(=O)O)CCN(CC(=O)O)CC2)NC(=O)[C@H](Cc2ccc3ccccc3c2)NC(=O)[C@H](CC(N)=O)NC(=O)[C@H](CC2CCNCC2)NC1=O)C1CCCCC1)[C@@H](C)O [compound 407, Ac-W-T-(Chg)-C(3)-[3-(4-piperidinyl)-Ala]-N-(2Nal)-Lys(G-S-G-S-G-S-DOTA)-D-C(3)-W-P-CONH2] (I: Ac-WT[Chg]C[Ala(piperidin-4-yl)]N[2Nal]KDCWP-NH2 / II: {DOTA}-SGSGSG; disulfide I:4-I:10; amide I:8-II:C)
Kd (SPR KD): < 1 nM

CCCC[C@@H](C(=O)N[C@H]1CSSC[C@@H](C(=O)N[C@@H](Cc2c[nH]c3ccccc23)C(=O)N2CCC[C@H]2C(N)=O)NC(=O)[C@H](CC(=O)O)NC(=O)[C@H](CCCCNC(=O)CN2CCN(CC(=O)O)CCN(CC(=O)O)CCN(CC(=O)O)CC2)NC(=O)[C@H](Cc2ccc3ccccc3c2)NC(=O)[C@H](CC(N)=O)NC(=O)[C@H](CC2CCNCC2)NC1=O)N(C)C(=O)[C@@H](NC(=O)[C@H](Cc1c[nH]c2c(C)cccc12)NC(C)=O)[C@@H](C)O [compound 408, Ac-(7Me-Trp)-T-(NMe-Nle)-C(3)-[3-(4-piperidinyl)-Ala]-N-(2Nal)-Lys(DOTA)-D-C(3)-W-P-CONH2] (Ac-[Trp(7-Me)]T[NMeNle]C[Ala(piperidin-4-yl)]N[2Nal]K(DOTA)DCWP-NH2; disulfide 4-10)
Kd (read-out: SPR KD): < 1 nM

CC(=O)N[C@@H](Cc1c[nH]c2ccccc12)C(=O)N[C@H](C(=O)N[C@H](C(=O)N[C@H]1CSCSC[C@@H](C(=O)N[C@@H](Cc2c[nH]c3ccccc23)C(=O)N2CCC[C@H]2C(N)=O)NC(=O)[C@H](C)NC(=O)[C@H](CCCCNC(=O)CN2CCN(CC(=O)O)CCN(CC(=O)O)CCN(CC(=O)O)CC2)NC(=O)[C@H](Cc2ccc3ccccc3c2)NC(=O)[C@H](CC(N)=O)NC(=O)[C@H](CC2CCNCC2)NC1=O)C1CCCCC1)[C@@H](C)O [compound 416, Ac-W-T-(Chg)-C(1)-[3-(4-piperidinyl)-Ala]-N-(2Nal)-Lys(DOTA)-(Ala)-C(1)-W-P-CONH2] (Ac-WT[Chg]C[Ala(piperidin-4-yl)]N[2Nal]K(DOTA)ACWP-NH2; linker 4-10 via CH2)
Kd (read-out: SPR KD): < 1 nM

CC(=O)N[C@@H](Cc1c[nH]c2ccccc12)C(=O)N[C@H](C(=O)N[C@H](C(=O)N[C@H]1CSCSC[C@@H](C(=O)N[C@@H](Cc2c[nH]c3ccccc23)C(=O)N2CCC[C@H]2C(=O)N[C@H](CCCCNC(=O)COCCOCCOCCOCCOCCOCCOCCOCCNC(=O)Cc2ccc(Br)cc2)C(N)=O)NC(=O)[C@H](CC(=O)O)NC(=O)[C@H](CCCCNC(=O)CN2CCN(CC(=O)O)CCN(CC(=O)O)CCN(CC(=O)O)CC2)NC(=O)[C@H](Cc2ccc3ccccc3c2)NC(=O)[C@H](CC(N)=O)NC(=O)[C@H](CC2CCNCC2)NC1=O)C1CCCCC1)[C@@H](C)O [compound 418] (Ac-WT[Chg]C[Ala(piperidin-4-yl)]N[2Nal]K(DOTA)DCWP[dK](X5)-NH2; linker 4-10 via CH2)
Kd (read-out: SPR KD): < 1 nM

CC(=O)N[C@@H](Cc1c[nH]c2ccccc12)C(=O)N[C@H](C(=O)N(C)[C@@H](CC(C)(C)C)C(=O)N[C@H]1CSSC[C@@H](C(=O)N[C@@H](Cc2c[nH]c3ccccc23)C(=O)N2CCC[C@H]2C(N)=O)NC(=O)[C@H](CC(=O)O)NC(=O)[C@H](CCCCNC(=O)CN2CCN(CC(=O)O)CCN(CC(=O)O)CCN(CC(=O)O)CC2)NC(=O)[C@H](Cc2ccc3ccccc3c2)NC(=O)[C@H](CC(N)=O)NC(=O)[C@H](CC2CCNCC2)NC1=O)[C@@H](C)O [compound 419, Ac-W-T-(NMe-tBuAla)-C(3)-[3-(4piperdinyl)-Ala]-N-(2Nal)-Lys(DOTA)-D-C(3)-W-P-CONH2] (Ac-WT[NMetBuAla]C[Ala(piperidin-4-yl)]N[2Nal]K(DOTA)DCWP-NH2; disulfide 4-10)
Kd (read-out: SPR KD): < 1 nM

CC(=O)N[C@@H](Cc1c[nH]c2ccccc12)C(=O)N[C@H](C(=O)N[C@H](C(=O)N[C@H]1CSSC[C@@H](C(=O)N[C@@H](Cc2c[nH]c3ccccc23)C(=O)N2CCC[C@H]2C(=O)N[C@H](CCCCNC(=O)COCCOCCOCCOCCOCCOCCOCCOCCNC(=O)Cc2ccc(I)cc2)C(N)=O)NC(=O)[C@H](CC(=O)O)NC(=O)[C@H](CCCCNC(=O)CN2CCN(CC(=O)O)CCN(CC(=O)O)CCN(CC(=O)O)CC2)NC(=O)[C@H](Cc2ccc3ccccc3c2)NC(=O)[C@H](CC(N)=O)NC(=O)[C@H](CC2CCNCC2)NC1=O)C1CCCCC1)[C@@H](C)O [compound 420] (Ac-WT[Chg]C[Ala(piperidin-4-yl)]N[2Nal]K(DOTA)DCWP[dK](X2)-NH2; disulfide 4-10)
Kd (SPR KD): < 1 nM

CC(=O)N[C@@H](Cc1c[nH]c2ccccc12)C(=O)N[C@H](C(=O)N[C@H](C(=O)N[C@H]1CSSC[C@@H](C(=O)N[C@@H](Cc2c[nH]c3ccccc23)C(=O)N2CCC[C@H]2C(=O)N[C@H](CCCCNC(=O)COCCOCCOCCOCCOCCOCCOCCOCCNC(=O)Cc2ccc(Br)cc2)C(N)=O)NC(=O)[C@H](CC(=O)O)NC(=O)[C@H](CCCCNC(=O)CN2CCN(CC(=O)O)CCN(CC(=O)O)CCN(CC(=O)O)CC2)NC(=O)[C@H](Cc2ccc3ccccc3c2)NC(=O)[C@H](CC(N)=O)NC(=O)[C@H](CC2CCNCC2)NC1=O)C1CCCCC1)[C@@H](C)O [compound 421] (Ac-WT[Chg]C[Ala(piperidin-4-yl)]N[2Nal]K(DOTA)DCWP[dK](X5)-NH2; disulfide 4-10)
Kd (SPR KD): < 1 nM

CCCC[C@@H](C(=O)N[C@H]1CSSC[C@@H](C(=O)N[C@@H](Cc2c[nH]c3ccccc23)C(=O)N2CCC[C@H]2C(N)=O)NC(=O)[C@H](CC(=O)O)NC(=O)[C@H](CCCCNC(=O)CN2CCN(CC(=O)O)CCN(CC(=O)O)CCN(CC(=O)O)CC2)NC(=O)[C@H](Cc2ccc3ccccc3c2)NC(=O)[C@H](CC(N)=O)NC(=O)[C@H](CC2CCNCC2)NC1=O)N(C)C(=O)[C@@H](NC(=O)[C@H](Cc1c[nH]c2c(OC)cccc12)NC(C)=O)[C@@H](C)O [compound 422, Ac-(7MeO-Trp)-T-(NMe-Nle)-C(3)-[3-(4piperdinyl)-Ala]-N-(2Nal)-Lys(DOTA)-D-C(3)-W-P-CONH2] (Ac-[Trp(7-OMe)]T[NMeNle]C[Ala(piperidin-4-yl)]N[2Nal]K(DOTA)DCWP-NH2; disulfide 4-10)
Kd (read-out: SPR KD): < 1 nM

CC(=O)N[C@H](Cc1c[nH]c2ccccc12)C(=O)N[C@@H](C(=O)N[C@@H](CC(C)(C)C)C(=O)N[C@@H]1CSCSC[C@@H](C(=O)N[C@@H](Cc2c[nH]c3ccccc23)C(=O)N2CCC[C@H]2C(N)=O)NC(=O)[C@H](CC(=O)O)NC(=O)[C@H](CCCCNC(=O)CN2CCN(CC(=O)O)CCN(CC(=O)O)CCN(CC(=O)O)CC2)NC(=O)[C@H](Cc2ccc3ccccc3c2)NC(=O)[C@H](CC(N)=O)NC(=O)[C@H](CC(N)=O)NC1=O)[C@H](C)O [compound 423, Ac-W-T-(t-Bu-Ala)-[D-Cys(1)]-N-N-(2Nal)-Lys(DOTA)-D-C(1)-W-P-CONH2] (Ac-[dW][dT][tBuAla][dC]NN[2Nal]K(DOTA)DCWP-NH2; linker 4-10 via CH2)
Kd (read-out: SPR KD): 100 to 300 nM

CC(=O)N[C@H](Cc1c[nH]c2ccccc12)C(=O)N[C@@H](C(=O)N[C@@H](CC(C)(C)C)C(=O)N[C@H]1CSCSC[C@H](C(=O)N[C@@H](Cc2c[nH]c3ccccc23)C(=O)N2CCC[C@H]2C(N)=O)NC(=O)[C@H](CC(=O)O)NC(=O)[C@H](CCCCNC(=O)CN2CCN(CC(=O)O)CCN(CC(=O)O)CCN(CC(=O)O)CC2)NC(=O)[C@H](Cc2ccc3ccccc3c2)NC(=O)[C@H](CC(N)=O)NC(=O)[C@H](CC(N)=O)NC1=O)[C@H](C)O [compound 424, Ac-W-T-(t-Bu-Ala)-C(1)-N-N-(2Nal)-Lys(DOTA)-D-[D-Cys(1)]-W-P-CONH2] (Ac-[dW][dT][tBuAla]CNN[2Nal]K(DOTA)D[dC]WP-NH2; linker 4-10 via CH2)
Kd (read-out: SPR KD): < 1 nM
